Reference: patent publication US20070155679A1, “USE OF BR[…] THE TREATMENT OF […] ASSOCIATED WITH H[…] NOVEL MEDICAMENT COMBINATIONS” (priority 2000, published 2007)

System: hypertrophic cardiomyopathy
Experiment: Cat with severe hypertrophic cardiomyopathy treated with cilobradine
Format: in vivo
Details: 0.3 mg/kg per os, 2x daily
Text: The new use of the bradycardiac substances according to the invention was investigated with the if channel blocker cilobradine by way of example, using the following method:
The hypertrophic cardiomyopathy in the cat serves as a model for the corresponding disease in humans (Kittleson et al., Circulation 91, 3172-3180 (1999)).

COc1ccc(CCN2CCC[C@H](CN3CCc4cc(OC)c(OC)cc4CC3=O)C2)cc1OC [cilobradine]
clinical symptoms (relief from pain, normal ECG, return of normal physiological activity pattern) (cat with severe hypertrophic cardiomyopathy): significant improvement in clinical symptoms | myocardial hypertrophy at follow-up (cat, follow-up after one year and after about 2 years' treatment): regression in myocardial hypertrophy
